ChEMBL document CHEMBL1201862, “PubChem BioAssay data set” (2004)
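Step 1: Grow cells in 96-well plates. Step 2: Expose to compound for 48 hours at 5 concentrations. Step 3: Interpolate endpoints linearly; if unreached, use highest concentration. GI50 = concentration required for 50% inhibition of growth.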 The source made the active and inactive calls. No stated cut-off is given here; in the data, active = GI50 up to about 1.1 µM and inactive = higher.

Experiments:
Test in all cases: NCI tumour cell line growth inhibition, 48 h
A498 = tested on: A498
EKVX = tested on: EKVX
IGROV-1 = tested on: IGROV-1
KM-20L2 = tested on: KM-20L2
KM12 = tested on: KM12
LOX IMVI = tested on: LOX IMVI
NCI-H226 = tested on: NCI-H226
OVCAR-5 = tested on: OVCAR-5
RXF 393 = tested on: RXF 393
SF-295 = tested on: SF-295
SN12C = tested on: SN12C
SNB-19 = tested on: SNB-19
SNB-75 = tested on: SNB-75
TK-10 = tested on: TK-10
U-251 = tested on: U-251
UACC-62 = tested on: UACC-62
UO-31 = tested on: UO-31
Hs-578T = tested on: Hs-578T
MDA-MB-435 = tested on: MDA-MB-435
NCI/ADR-RES = tested on: NCI/ADR-RES

Measured: GI50

CN1NC2(CCCCC2)ON=C1c1ccccc1
inactive: A498 > 100 µM | EKVX > 100 µM | IGROV-1 > 100 µM | KM-20L2 > 100 µM | KM12 > 100 µM | LOX IMVI > 100 µM | NCI-H226 > 100 µM | OVCAR-5 > 100 µM | RXF 393 > 100 µM | SF-295 > 100 µM | SN12C > 100 µM | SNB-19 > 100 µM | SNB-75 > 100 µM | TK-10 > 100 µM | U-251 > 100 µM | UACC-62 > 100 µM

Cc1ccc(S(=O)(=O)C(CC(NC=O)S(=O)(=O)c2ccc(C)cc2)NC=O)cc1 (stereo not given)
inactive: A498 > 100 µM | EKVX > 100 µM | IGROV-1 > 100 µM | KM-20L2 > 100 µM | KM12 > 100 µM | LOX IMVI > 100 µM | NCI-H226 > 100 µM | RXF 393 > 100 µM | SF-295 > 100 µM | SN12C > 100 µM | SNB-19 > 100 µM | SNB-75 > 100 µM | TK-10 > 100 µM | U-251 > 100 µM | UACC-62 > 100 µM | UO-31 > 100 µM

Cc1cc(=O)n(-c2ccccc2C)c(C)n1
inactive: A498 > 100 µM | EKVX > 100 µM | IGROV-1 > 100 µM | KM-20L2 > 100 µM | KM12 > 100 µM | LOX IMVI > 100 µM | NCI-H226 > 100 µM | OVCAR-5 > 100 µM | RXF 393 > 100 µM | SF-295 > 100 µM | SN12C > 100 µM | SNB-19 > 100 µM | SNB-75 > 100 µM | TK-10 > 100 µM | U-251 > 100 µM | UACC-62 > 100 µM | UO-31 > 100 µM

CC12CC(Br)(Br)C(=O)C3C1CCCC32
inactive: A498 16.8 µM | EKVX 7.1 µM | Hs-578T 12.6 µM | IGROV-1 10.1 µM | KM-20L2 17.4 µM | KM12 13 µM | LOX IMVI 2.68 µM | MDA-MB-435 3.03 µM | NCI-H226 11.3 µM | NCI/ADR-RES 2.51 µM | OVCAR-5 17.8 µM | RXF 393 2.11 µM | SF-295 15.9 µM | SN12C 4.57 µM | SNB-19 14.2 µM | SNB-75 8.2 µM | TK-10 6.27 µM | U-251 11.5 µM | UACC-62 7.13 µM | UO-31 6.05 µM

N=C(N)NCCCCCCC(=O)NC(O)C(=O)NCCCCNCCCN (stereo not given)
inactive: A498 > 750 µM | EKVX 643 µM | Hs-578T 748 µM | IGROV-1 665 µM | KM-20L2 600 µM | KM12 577 µM | LOX IMVI 605 µM | MDA-MB-435 > 750 µM | NCI-H226 687 µM | NCI/ADR-RES > 750 µM | OVCAR-5 > 750 µM | RXF 393 700 µM | SF-295 553 µM | SN12C > 750 µM | SNB-19 695 µM | SNB-75 335 µM | TK-10 > 750 µM | U-251 611 µM | UACC-62 711 µM | UO-31 590 µM

N#CCCn1[nH]c(=O)c(Cl)c(Cl)c1=O
inactive: A498 20.2 µM | EKVX 3.87 µM | IGROV-1 17.1 µM | KM-20L2 15.8 µM | KM12 14.5 µM | LOX IMVI 15 µM | NCI-H226 23 µM | OVCAR-5 18.8 µM | RXF 393 17.1 µM | SF-295 18.1 µM | SN12C 17.4 µM | SNB-19 15.4 µM | SNB-75 13.2 µM | TK-10 35.8 µM | U-251 16.6 µM | UO-31 18.9 µM
